Results on two compounds are retold here after patent US20100016163A1, “Adjuvant and dispersant formulations for pesticidal applications” (priority 2007, published 2010).

Data set [1] can be described thus: Surface tension, Gibbs isotherm (Kibron μTrough S). The data set is classed as physicochemical. The following applies: FIG. 3. The source says:
The surface tension of a solution can give important information about its behavior as a surfactant. Measuring the surface tension of a series of aqueous solutions of a molecule and plotting the measured surface tension results versus the logarithm of the concentrations of the series of aqueous solutions yields a plot known as a Gibbs isotherm. From the Gibbs isotherm, one can obtain the critical micelle concentration (CMC) of a surfactant as well as the surface tension at the CMC, two parameters that can indicate the behavior of a surfactant.
For each molecule studied, 14 solutions were prepared so that each solution was half the concentration of the previous solution. Another solution that consisted of only deionized water was used as a reference. Therefore, a total of 15 solutions were studied for each molecule.

The subject of a further data set is all 8 species. Kind of data set: Field trial of phytotoxicity enhancement, isopropyl ammonium glyphosate formulations (Example 7), sum over species. Type of data set: in vivo. The following applies: foliar, isopropyl ammonium glyphosate 360 g a.e./l, 15% surfactant. On the procedure:
(§1) The C14 DMAPA MeCl Esterquat formulation was prepared as follows: About 32.3 grams of a solution of the isopropyl ammonium salt of glyphosate, which was about 46.5% by weight acid equivalent (a.e.) of glyphosate and about 6.2 grams of deionized water, were added in a 4-ounce jar. Then, about 7.5 grams of the C14 DMAPA MeCl Esterquat and about 4 grams of propylene glycol were slowly added to the jar with stirring.
(§2) Samples of the formulations as made above were applied to subject plants at two application rates, 90% and 45% of the label rate of RoundUp® Ultra, available from Monsanto Company, St. Louis, Mo. RoundUp® Ultra contains about 360 g a.e./l of isopropyl ammonium glyphosate salt and about 15% by weight of a blend of surfactants. The precise identity of the surfactants has not been disclosed.
Eight plant species were selected for the study. They include (1) Bamyardgrass, (2) Redroot pigweed, (3) Morning glory ivyleaf, (4) Sicklepod, (5) Panicum, (6) Crabgrass, (7) Velvetleaf, and (8) Sunflower. The tests were performed in a randomized complete block design with 5 replicates of each species of plant. Plants were grown in square plastic pots, 3.75 inches×3.75 inches and 3.125 inches deep. Prior to treatment, 5 replicate pots were indiscriminately selected for each treatment and plant species. […]

The next data set relates to Sunflower. Nature of the data set: Field trial Example 7, % kill. Type of data set: in vivo. The following applies: isopropyl ammonium glyphosate 360 g a.e./l. On the procedure:
as §1, §2
(§3) Eight plant species were selected for the study. They include (1) Bamyardgrass, (2) Redroot pigweed, (3) Morning glory ivyleaf, (4) Sicklepod, (5) Panicum, (6) Crabgrass, (7) Velvetleaf, and (8) Sunflower. The tests were performed in a randomized complete block design with 5 replicates of each species of plant. Plants were grown in square plastic pots, 3.75 inches×3.75 inches and 3.125 inches deep. Prior to treatment, 5 replicate pots were indiscriminately selected for each treatment and plant species. Treatments were applied as foliar applications with a hand pump sprayer equipped with 1 nozzle calibrated to deliver 15 gallons per acre. All spraying tests included a set of 5 untreated control plants from each species.

The next data set relates to Panicum, fall. Nature of the data set: Field trial Example 7, % kill. The data set is classed as in vivo. Conditions: isopropyl ammonium glyphosate 360 g a.e./l. How it is done: as §1, §2, §3
The subject of the next data set is Velvetleaf. Nature of the data set: Field trial Example 7, % kill. Conditions: isopropyl ammonium glyphosate 360 g a.e./l. The data set is classed as in vivo. On the procedure: as §1, §2, §3
A further data set concerns Morning glory, ivyleaf. Kind of data set: Field trial Example 7, % kill. Type of data set: in vivo. The following applies: isopropyl ammonium glyphosate 360 g a.e./l. On the procedure: as §1, §2, §3
The subject of another data set is Sicklepod. Kind of data set: Field trial Example 7, % kill. Type of data set: in vivo. Conditions: isopropyl ammonium glyphosate 360 g a.e./l. How it is done:
as §1, §2, §3

The next data set has as its system Redroot pigweed. Kind of data set: Field trial Example 7, % kill. The data set is classed as in vivo. Conditions: isopropyl ammonium glyphosate 360 g a.e./l. How it is done: as §1, §2, §3
For the next data set, the system named is Crabgrass. Nature of the data set: Field trial Example 7, % kill. The data set is classed as in vivo. Conditions: isopropyl ammonium glyphosate 360 g a.e./l. How it is done: as §1, §2, §3
The next data set deals with Barnyardgrass. Nature of the data set: Field trial Example 7, % kill. The data set is classed as in vivo. Conditions: isopropyl ammonium glyphosate 360 g a.e./l. How it is done:
as §1, §2, §3

The conditions of data set [2]: acid form, 25° C., cited from earlier work.

Where two headings read alike, the source gives them in different places.

On to `CCCCCCCCCCCCCC(=O)NCCC[N+](C)(C)C.[Cl-]` [C14 DMAPA MeCl Esterquat], for which, in [1], the “surface activity, compared with C14 DMAPA MeCl Esterquat” value is “higher surface activity”. Besides, in the data set with all 8 species (45% of RoundUp Ultra label rate), the “Sum of % kill of all 8 species at low (45%) application rate” value was 660%. In the data set on all 8 species (90% of RoundUp Ultra label rate), the “Sum of % kill of all 8 species at high (90%) application rate” value came out at 708%. Further, the “% kill” value in the data set on Sunflower (high (90%) application rate) came out at 100%; in the data set with Sunflower (low (45%) application rate), 100%; in the data set on Panicum, fall (high (90%) application rate), 95%; with Panicum, fall (low (45%) application rate), 90%; in the data set with Velvetleaf (high (90%) application rate) it was 96%; in the data set on Velvetleaf (low (45%) application rate), 96%. The “% kill” value is reported as 84% in the data set with Morning glory, ivyleaf (high (90%) application rate); 53% in the data set on Morning glory, ivyleaf (low (45%) application rate); 33% with Sicklepod (high (90%) application rate); 22% in the data set on Sicklepod (low (45%) application rate); 100% in the data set on Redroot pigweed (high (90%) application rate); 100% in the data set with Redroot pigweed (low (45%) application rate). The “% kill” value is given as 100% in the data set on Crabgrass (high (90%) application rate), 100% with Crabgrass (low (45%) application rate), 100% in the data set on Barnyardgrass (high (90%) application rate) and 99% in the data set on Barnyardgrass (low (45%) application rate).
`O=C(O)CNCP(=O)(O)O` [Glyphosate, N-(phosphonomethyl)glycine]: the solubility in water in data set [2] was 1.16 % by weight; in data set [2] (listed as glyphosate), “about 1.16 % by weight”.
